Results reported in patent US12383545B1, “Treatment of migraine” (priority 2018, dated 2025).

Assays:
[1] = human, in vivo
Method: Data was also evaluated from Study C (described in Example 3) and Study D, a Phase 2b/3 clinical trial evaluating the efficacy, safety, and tolerability of orally administered atogepant. In Study D, after a 28 day baseline period, a total of 652 patients were randomized 1:2:2:2 to receive either atogepant 10 mg (n=94), atogepant 30 mg (n=185), atogepant 60 mg (n=187) or placebo (n=186).
The proportion of patients with weight decrease ≥7% at any point was 2.8% for placebo, 3.8% for atogepant 10 mg, 3.2% for atogepant 30 mg, and 4.9% for atogepant 60 mg. No patients in either study discontinued atogepant due to decreased weight.

[2] = test system: participants with episodic migraine; assay: Study B: phase 3 randomized open-label 52-week long-term safety trial, eDiary efficacy (atogepant arm); type: in vivo, human; settings: for Change from Baseline in Monthly Acute Medication Use Days, LS means - MMRM / Monthly Acute Medication Use Days, Observed Mean: Atogepant 60 mg QD, mITT Population
Method: Study B: A phase 3, multicenter, randomized, open label study was conducted to evaluate the long-term safety and tolerability of oral atogepant for the prevention of migraine in participants with episodic migraine (Study B). The study objective was to evaluate the safety and tolerability of daily treatment with atogepant 60 mg QD when administered over 52 weeks for the prevention of migraine in participants with episodic migraine.
FIG. 12 provides a schematic for the long-term safety study design. The study comprised a 4-week baseline/screening period, followed by a 52-week open-label treatment period, and a 4-week safety follow-up period.
A total of 744 participants from 106 sites were randomized in a ratio of 5:2 to the following treatment groups: atogepant 60 mg QD or oral standard of care (SOC) migraine prevention medication. The latter arm was included to contextualize safety data from the atogepant-treated participants, and efficacy measures were collected from the atogepant arm only. Efficacy measures were evaluated using the modified intent-to-treat (mITT) population and a mixed-effects model for repeated measures and included changes from baseline in monthly migraine days (MDDs), moderate/severe headache days, and acute medication use days, as well as the proportion of responders based on reductions in MMDs.
A total of 739 patients (n=546 atogepant) were included in the safety population.
All Screened Participants include those screened participants that signed informed consent forms. The Intent-to-Treat Population (ITT) includes all of the randomized participants. The safety population includes all participants who received at least one dose of study intervention (atogepant or SOC medication).
Efficacy endpoints for this study included change from baseline in monthly migraine days at each monthly period; change from baseline in monthly headache days at each monthly period; change from baseline in monthly acute medication use days at each monthly period; and ≥50% improvement (reduction) in monthly migraine days at each monthly period.

[3] = Study B, 60 mg QD, Weeks 1-4, mITT
[4] = Study B, 60 mg QD, Weeks 5-8, mITT
[5] = Study B, 60 mg QD, Weeks 9-12, mITT
[6] = Study B, 60 mg QD, Weeks 13-16, mITT
[7] = Study B, 60 mg QD, Weeks 17-20, mITT
[8] = Study B, 60 mg QD, Weeks 21-24, mITT
[9] = Study B, 60 mg QD, Weeks 25-28, mITT
[10] = Study B, 60 mg QD, Weeks 29-32, mITT
[11] = Study B, 60 mg QD, Weeks 33-36, mITT
[12] = Study B, 60 mg QD, Weeks 37-40, mITT
[13] = Study B, 60 mg QD, Weeks 41-44, mITT
[14] = Study B, 60 mg QD, Weeks 45-48, mITT
[15] = Study B, 60 mg QD, Weeks 49-52, mITT
[16] = Study B, 60 mg QD, weeks 49-52, participants who remained in the trial

C[C@@H]1[C@H](c2c(F)ccc(F)c2F)C[C@H](NC(=O)c2cnc3c(c2)C[C@@]2(C3)C(=O)Nc3ncccc32)C(=O)N1CC(F)(F)F [atogepant]
TEAE Weight decreased [1]: 5 (0.4%) n (%) | Monthly headache days, change from baseline, LS means (95% CI) - MMRM [2, 3]: -4.00 days | Monthly headache days, observed mean (SD) [2, 3]: 4.40 days | Monthly migraine days, change from baseline, LS means (95% CI) - MMRM [2, 3]: -3.84 days | Monthly migraine days, observed mean (SD) [2, 3]: 3.47 days | ≥50% improvement (reduction) in monthly migraine days, responder n/N1 (%) [2, 3]: (60.4) % | Monthly headache days, change from baseline, LS means (95% CI) - MMRM [2, 4]: -4.40 days | Monthly headache days, observed mean (SD) [2, 4]: 3.97 days | Monthly migraine days, change from baseline, LS means (95% CI) - MMRM [2, 4]: -4.15 days | Monthly migraine days, observed mean (SD) [2, 4]: 3.13 days | ≥50% improvement (reduction) in monthly migraine days, responder n/N1 (%) [2, 4]: (65.1) % | Monthly headache days, change from baseline, LS means (95% CI) - MMRM [2, 5]: -4.80 days | Monthly headache days, observed mean (SD) [2, 5]: 3.51 days | Monthly migraine days, change from baseline, LS means (95% CI) - MMRM [2, 5]: -4.38 days | Monthly migraine days, observed mean (SD) [2, 5]: 2.85 days | ≥50% improvement (reduction) in monthly migraine days, responder n/N1 (%) [2, 5]: (70.2) % | Monthly headache days, change from baseline, LS means (95% CI) - MMRM [2, 6]: -5.12 days | Monthly headache days, observed mean (SD) [2, 6]: 3.19 days | Monthly migraine days, change from baseline, LS means (95% CI) - MMRM [2, 6]: -4.69 days | Monthly migraine days, observed mean (SD) [2, 6]: 2.52 days | ≥50% improvement (reduction) in monthly migraine days, responder n/N1 (%) [2, 6]: (74.1) % | Monthly headache days, change from baseline, LS means (95% CI) - MMRM [2, 7]: -5.35 days | Monthly headache days, observed mean (SD) [2, 7]: 2.84 days | Monthly migraine days, change from baseline, LS means (95% CI) - MMRM [2, 7]: -4.76 days | Monthly migraine days, observed mean (SD) [2, 7]: 2.33 days | ≥50% improvement (reduction) in monthly migraine days, responder n/N1 (%) [2, 7]: (73.5) % | Monthly headache days, change from baseline, LS means (95% CI) - MMRM [2, 8]: -5.30 days | Monthly headache days, observed mean (SD) [2, 8]: 2.87 days | Monthly migraine days, change from baseline, LS means (95% CI) - MMRM [2, 8]: -4.72 days | Monthly migraine days, observed mean (SD) [2, 8]: 2.37 days | ≥50% improvement (reduction) in monthly migraine days, responder n/N1 (%) [2, 8]: (75.3) % | Monthly headache days, change from baseline, LS means (95% CI) - MMRM [2, 9]: -5.42 days | Monthly migraine days, change from baseline, LS means (95% CI) - MMRM [2, 9]: -4.85 days | Monthly migraine days, observed mean (SD) [2, 9]: 2.20 days | ≥50% improvement (reduction) in monthly migraine days, responder n/N1 (%) [2, 9]: (75.1) % | Monthly headache days, change from baseline, LS means (95% CI) - MMRM [2, 10]: -5.41 days | Monthly headache days, observed mean (SD) [2, 10]: 2.52 days | Monthly migraine days, change from baseline, LS means (95% CI) - MMRM [2, 10]: -4.82 days | Monthly migraine days, observed mean (SD) [2, 10]: 2.12 days | ≥50% improvement (reduction) in monthly migraine days, responder n/N1 (%) [2, 10]: (76.7) % | Monthly headache days, change from baseline, LS means (95% CI) - MMRM [2, 11]: -5.62 days | Monthly headache days, observed mean (SD) [2, 11]: 2.47 days | Monthly migraine days, change from baseline, LS means (95% CI) - MMRM [2, 11]: -4.95 days | Monthly migraine days, observed mean (SD) [2, 11]: 2.06 days | ≥50% improvement (reduction) in monthly migraine days, responder n/N1 (%) [2, 11]: (80.5) % | Monthly headache days, change from baseline, LS means (95% CI) - MMRM [2, 12]: -5.69 days | Monthly headache days, observed mean (SD) [2, 12]: 2.45 days | Monthly migraine days, change from baseline, LS means (95% CI) - MMRM [2, 12]: -4.97 days | Monthly migraine days, observed mean (SD) [2, 12]: 2.08 days | ≥50% improvement (reduction) in monthly migraine days, responder n/N1 (%) [2, 12]: (78.1) % | Monthly headache days, change from baseline, LS means (95% CI) - MMRM [2, 13]: -5.66 days | Monthly headache days, observed mean (SD) [2, 13]: 2.45 days | Monthly migraine days, change from baseline, LS means (95% CI) - MMRM [2, 13]: -4.95 days | Monthly migraine days, observed mean (SD) [2, 13]: 2.09 days | ≥50% improvement (reduction) in monthly migraine days, responder n/N1 (%) [2, 13]: (78.5) % | Monthly headache days, change from baseline, LS means (95% CI) - MMRM [2, 14]: -5.90 days | Monthly headache days, observed mean (SD) [2, 14]: 2.23 days | Monthly migraine days, change from baseline, LS means (95% CI) - MMRM [2, 14]: -5.13 days | Monthly migraine days, observed mean (SD) [2, 14]: 1.91 days | ≥50% improvement (reduction) in monthly migraine days, responder n/N1 (%) [2, 14]: (82.4) % | Monthly headache days, change from baseline, LS means (95% CI) - MMRM [2, 15]: -5.99 days | Monthly headache days, observed mean (SD) [2, 15]: 2.13 days | Monthly migraine days, change from baseline, LS means (95% CI) - MMRM [2, 15]: -5.19 days | Monthly migraine days, observed mean (SD) [2, 15]: 1.84 days | ≥50% improvement (reduction) in monthly migraine days, responder n/N1 (%) [2, 15]: 84.2% | ≥50% improvement (reduction) in monthly migraine days, responder n/N1 (%) ([2]; Study B, 60 mg QD, Weeks 49-52, mITT, listed as Atogepant): (84.2) % | participants with 100% reduction in MMDs [2, 16]: 48.4% | participants with ≥75% reduction in MMDs [2, 16]: 69.9% | reduction from baseline in monthly migraine days ([2]; Study B, 60 mg, month 1, given as reduction): approximately 4 days | Change from Baseline in Monthly Acute Medication Use Days, LS means - MMRM ([2]; Weeks 1-4): -4.04 days | Monthly Acute Medication Use Days, Observed Mean ([2]; Weeks 1-4): 2.60 days | Change from Baseline in Monthly Acute Medication Use Days, LS means - MMRM ([2]; Weeks 5-8): -4.11 days | Monthly Acute Medication Use Days, Observed Mean ([2]; Weeks 5-8): 2.49 days | Change from Baseline in Monthly Acute Medication Use Days, LS means - MMRM ([2]; Weeks 9-12): -4.18 days | Monthly Acute Medication Use Days, Observed Mean ([2]; Weeks 9-12): 2.39 days | Change from Baseline in Monthly Acute Medication Use Days, LS means - MMRM ([2]; Weeks 13-16): -4.46 days | Monthly Acute Medication Use Days, Observed Mean ([2]; Weeks 13-16): 2.09 days | Change from Baseline in Monthly Acute Medication Use Days, LS means - MMRM ([2]; Weeks 17-20): -4.56 days | Monthly Acute Medication Use Days, Observed Mean ([2]; Weeks 17-20): 1.92 days | Change from Baseline in Monthly Acute Medication Use Days, LS means - MMRM ([2]; Weeks 21-24): -4.49 days | Monthly Acute Medication Use Days, Observed Mean ([2]; Weeks 21-24): 2.01 days | Change from Baseline in Monthly Acute Medication Use Days, LS means - MMRM ([2]; Weeks 25-28): -4.59 days | Monthly Acute Medication Use Days, Observed Mean ([2]; Weeks 25-28): 1.90 days | Change from Baseline in Monthly Acute Medication Use Days, LS means - MMRM ([2]; Weeks 29-32): -4.54 days | Monthly Acute Medication Use Days, Observed Mean ([2]; Weeks 29-32): 1.84 days | Change from Baseline in Monthly Acute Medication Use Days, LS means - MMRM ([2]; Weeks 33-36): -4.66 days | Monthly Acute Medication Use Days, Observed Mean ([2]; Weeks 33-36): 1.75 days | Change from Baseline in Monthly Acute Medication Use Days, LS means - MMRM ([2]; Weeks 37-40): -4.68 days | Monthly Acute Medication Use Days, Observed Mean ([2]; Weeks 37-40): 1.75 days | Change from Baseline in Monthly Acute Medication Use Days, LS means - MMRM ([2]; Weeks 41-44): -4.71 days | Monthly Acute Medication Use Days, Observed Mean ([2]; Weeks 41-44): 1.69 days | Change from Baseline in Monthly Acute Medication Use Days, LS means - MMRM ([2]; Weeks 45-48): -4.90 days | Monthly Acute Medication Use Days, Observed Mean ([2]; Weeks 45-48): 1.51 days | Change from Baseline in Monthly Acute Medication Use Days, LS means - MMRM ([2]; Weeks 49-52): -4.93 days | Monthly Acute Medication Use Days, Observed Mean ([2]; Weeks 49-52): 1.50 days
